The source of these data is patent US4748161A, “Triterpenyl esters of organic acids and hypolipidemic agents composed of them” (Amano Pharmaceutical Co., Ltd., priority 1984, dated 1988).

One data set concerns serum TC. The note with it: 1% added to diet containing 0.5% of cholesterol; cited from earlier work.
Data set [1] deals with serum lipids and serum lipid hydroperoxide. In words: Pharmacological test method A for anti-hyperlipidemic activity (serum lipids, 2 weeks feeding). Format: in vivo, male Wistar strain rats. The essentials:
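Male Wistar rats (100±lg, 10 per group) fed 10 g/day for 2 weeks of a 1% cholesterol/0.5% cholic acid diet, test groups with 1% each of cycloartenol, 24-methylenecycloartanol and cyclobranol. After 16 h fast, aortic blood serum assayed enzymatically/colorimetrically for TC, HDL-C, TG, PL, LPO.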

A further data set has as its system male Wistar strain rats. In words: Acute toxicity test, rats, oral. Format: in vivo, rat (male Wistar strain). The conditions noted are these: 2 to 6 g/Kg; for Mortality: 2 weeks observation. The method, then:
(§1) Acute toxicity tests were conducted using 5 male ddy strain mice (30±2 g) and 5 male Wistar strain rats (100±2 g) for each compound by oral administration.
(§2) The above 66 compounds of esters, and as control drugs, cycloartenol, 24-methylenecycloartanol, cyclobranol, and γ-orizanol were given forcibly to the above-mentioned mice and rats by means of a throat explorer rod in doses of 0.1 to 5 g/Kg for mice and 2 to 6 g/Kg for rats. During the test, the temperature of the animal room was kept at 22° to 23 ° C. […] In the inspection conducted after 2-week observation, no macroscopic lesion was found in any part of main organs. Thus the compound of the invention has very low toxicity, so that the LD50 value could not determined.

Another data set has as its system male ddy strain mice. In words: Acute toxicity test, mice, oral. Format: in vivo, mouse (male ddy strain). The note with it: 0.1 to 5 g/Kg; for Mortality: 2 weeks observation. How it is done:
as §1, §2

Each structure is given as a SMILES string.

In the case of `CC(C)=CCC[C@@H](C)[C@H]1CC[C@@]2(C)[C@@H]3CC[C@H]4C(C)(C)[C@@H](O)CC[C@@]45C[C@@]35CC[C@]12C` [Sample 1, cycloartenol], the “percentage of TC lowering” value in the data set on serum TC was 13.7%. Moreover, the AI change result in data set [1] is given as “showed tendencies to decrease it”. In the data set on male Wistar strain rats, the Symptoms of toxicosis result is “no symptom of toxicosis appeared” and the Mortality entry was “none of the animals died”. In addition, in the data set on male ddy strain mice, the Symptoms of toxicosis result is reported as “no symptom of toxicosis appeared” and the Mortality result is “none of the animals died”.

On to `CC(C)=C(C)CCC(C)C1CCC2(C)C3CCC4C(C)(C)C(O)CCC45CC35CCC12C` (centres unmarked) [Sample 2, cyclobranol], for which the AI change result in data set [1] was “showed tendencies to decrease it”. Besides, the Symptoms of toxicosis result in the data set on male Wistar strain rats and in the data set on male ddy strain mice was “no symptom of toxicosis appeared” each time. The Mortality result in the data set on male Wistar strain rats and in the data set with male ddy strain mice was “none of the animals died” each time.

`C=C(CCC(C)C1CCC2(C)C3CCC4C(C)(C)C(O)CCC45CC35CCC12C)C(C)C` (centres unmarked) [Sample 3, 24-methylenecycloartanol]: the “percentage of TC lowering” value in the data set on serum TC is reported as 10.2%. Besides, in data set [1], the AI change result is reported as “only a slight tendency to increase”. Also, the Symptoms of toxicosis entry in the data set with male Wistar strain rats and in the data set with male ddy strain mice was “no symptom of toxicosis appeared” in each case. In addition, the Mortality result in the data set on male Wistar strain rats and in the data set with male ddy strain mice was “none of the animals died” each time.
